Data on 1 compound can be found in publication PMC10348910, “Epigenetic reprogramming of cell cycle genes by ACK1 promotes breast cancer resistance to CDK4/6 inhibitor” (Oncogene, 2023).

SMILES strings stand for the structures.

Assay [1] concerns CCNB1, CCNB2 and CDC20 mRNA. Kind of assay: qRT-PCR of CCNB1, CCNB2 and CDC20 in breast cancer cells. It counts as cell-based. The note with it: MCF7, MDA-MB-453, SKBR3 and HCC-1395 cells; overnight. The procedure:
Fig. 2 ACK1 regulates breast cancer transcriptome, affecting genes implicated in cell cycle progression. A Chemical structure of (R)-9b. B Breast cancer cell lines were treated with either vehicle or (R)-9b overnight and cell lysates were subjected to immunoprecipitation using ACK1 antibody, followed by immunoblotting with pY284-ACK1 antibody. Lysates were also subjected to immunoblotting with total ACK1 and Actin antibodies, shown in the lower panels. […] C Breast cancer cell lines were treated with varying concentrations of (R)-9b for 96 h and the cell proliferation was measured using Trypan Blue exclusion method. D–H RNA from breast cancer cells treated with vehicle or varying concentrations of (R)-9b overnight, and were subjected to qRT-PCR using CCNB1, CCNB2 and CDC20 primers. Actin or 18S rRNA was used as housekeeping control. For (B), representative images of three independent experiments are shown. For (C), a four parameter, variable slope, non-linear regression curve was computed, representing three independent experiments. […]
Real-time quantitative PCR analyses were performed using the ABI PRISM 7900HT Sequence Detection System (Applied Biosystems) as described earlier. […] Data were analyzed using SDS software version 2.2.2 and exported into an Excel spreadsheet. […]

Assay [2] relates to Palbociclib-resistant MDA-MB-231. The assay can be described thus: proliferation assay, trypan blue exclusion. The note with it: palbociclib-resistant MDA-MB-231, 96 h. In kind it is cell-based. How it is done: (§1) A–F Breast cancer cells were treated with either vehicle or (R)-9b for 48 h; cells were harvested and processed for cell cycle analysis using propidium iodide staining, followed by flow cytometry. G BT549 and H MDA-MB-468 cells were treated with varying drug concentrations of palbociclib or (R)-9b for 96 h and the cell viability assessed using trypan blue exclusion method. I BT549, and J MDA-MB-468 cells were treated with 1 µM palbociclib or (R)-9b for 48 h and subjected to cell cycle analysis using propidium iodide staining, followed by flow-cytometry. Palbociclib-resistant MDA-MB-231 (K) and HCC-1395 (L) were generated and treated with varying drug concentrations of palbociclib or (R)-9b for 96 h and the cell viability assessed using trypan blue exclusion method.
(§2) The mid-G1 phase is governed by CDK4 and CDK6, two serine/threonine kinases the catalytic activity of which is modulated by D-type cyclins (D1, D2, and D3). […]
(§3) For proliferation assay, 5 × 10^4 cells were plated in 6-well plate and treated with either vehicle (DMSO) or varying concentrations of (R)-9b or palbociclib in complete media for 96 h and number of viable cells were counted by trypan blue exclusion assay. […] The cells were acquired using the BD FACSCalibur machine (BD Biosciences) and data was analyzed using FlowJo software. […] The data were analyzed using FlowJo software.

The test system of assay [3] is Palbociclib-resistant HCC-1395. The assay can be described thus: proliferation assay, trypan blue exclusion. It counts as cell-based. The note with it: palbociclib-resistant HCC-1395, 96 h. How it is done: as §1, §2, §3
Assay [4] has as its system prostate cancer cell lines. On the set-up: method as in PMID 28609657. The note with it: various prostate cancer cell lines; cited from earlier work.
Assay [5] relates to pY284-ACK1. The assay can be described thus: immunoprecipitation and immunoblotting for pY284-ACK1. In kind it is cell-based. The note with it: MDA-MB-231, HCC-1395, Cal148, T47D, MCF7, SKBR3, MDA-MB-453; overnight. The procedure: Fig. 2 ACK1 regulates breast cancer transcriptome, affecting genes implicated in cell cycle progression. A Chemical structure of (R)-9b. B Breast cancer cell lines were treated with either vehicle or (R)-9b overnight and cell lysates were subjected to immunoprecipitation using ACK1 antibody, followed by immunoblotting with pY284-ACK1 antibody. Lysates were also subjected to immunoblotting with total ACK1 and Actin antibodies, shown in the lower panels. […] C Breast cancer cell lines were treated with varying concentrations of (R)-9b for 96 h and the cell proliferation was measured using Trypan Blue exclusion method. D–H RNA from breast cancer cells treated with vehicle or varying concentrations of (R)-9b overnight, and were subjected to qRT-PCR using CCNB1, CCNB2 and CDC20 primers. Actin or 18S rRNA was used as housekeeping control. For (B), representative images of three independent experiments are shown. For (C), a four parameter, variable slope, non-linear regression curve was computed, representing three independent experiments. For (D–H), data are represented as the mean ± SEM. *p < 0.05, **p < 0.01, ***p < 0.001, unpaired two-tailed Student’s t test.
Vehicle or (R)-9b (5 µM, overnight in serum free media) treated cells were lysed by sonication in receptor lysis buffer (RLB) and lysates were fractionated by SDS-PAGE, and transferred onto a PVDF membrane (Immobilon). […]

For the compound `CN1CCN(c2ccc(Nc3ncc(Cl)c(NC[C@H]4CCCO4)n3)cc2)CC1` [(R)-9b], the “CCNB1, CCNB2 and CDC20 mRNA transcripts” value in assay [1] is reported as “significant downregulation”. For the same compound, the “sensitivity (cell proliferation)” value in assay [2] and in assay [3] was “loss of proliferation” each time. In addition, the IC50 in assay [4] was 400 nM. Moreover, the “pY284-ACK1 levels (ACK1 activation)” value in assay [5] was “reduced pY284-ACK1 levels”.
